US20200222391A1, “SOLID PREPARATION OF CARIPRAZINE FOR ORAL ADMINISTRATION” (Richter Gedeon Nyrt., priority 2017, published 2020)
Structures can show the parent of a compound that is named as a salt. Where two headings read alike, the source gives them in different places.

Columns and labels:
[1] = Caco-2 model of drug absorption (permeability); assay type: in vitro ADME; conditions: human, read-out: permeability directional ratio (PDR)
Protocol: In the Caco-2 model of drug absorption, the permeability coefficients of cariprazine in inward and outward directions were calculated to be 26.4.10-6 cm/sec and 51.2.10-6 cm/sec, respectively (permeability directional ratio (PDR): 1.9) (Artursson P & Karlsson J (1991). “Correlation between oral drug absorption in humans and apparent drug permeability coefficients in human intestinal epithelial (Caco-2) cells”. Biochem Biophys Res Comm 175 (3): 880-5 and internal data).

[2] = pH-solubility of cariprazine hydrochloride at 37° C.; assay type: physicochemical
From the text: Cariprazine salts are very well soluble in acidic environment. However, drugs, which are soluble in acidic environment can be practically insoluble in neutral or basic environment.

Row | efflux ratio [1] | pH value of best solubility [2] | solubility ([2]; 37 °C, pH 1, simulated gastric fluid, pH 1, read-out: Solubility) | solubility ([2]; 37 °C, pH 2, simulated gastric fluid, pH 2, read-out: Solubility) | solubility ([2]; 37 °C, pH 3, aqueous buffer, pH 3, read-out: Solubility) | solubility ([2]; 37 °C, pH 4, aqueous buffer, pH 4, read-out: Solubility) | solubility ([2]; 37 °C, pH 5, aqueous buffer, pH 5, read-out: Solubility) | solubility ([2]; 37 °C, pH 5.5, aqueous buffer, pH 5.5, read-out: Solubility) | solubility ([2]; 37 °C, pH 6, aqueous buffer, pH 6, read-out: Solubility) | solubility ([2]; 37 °C, pH 7, aqueous buffer, pH 7, read-out: Solubility) | solubility ([2]; pH 1, hydrochloride) | solubility ([2]; pH 7, hydrochloride) | Compound
1 | 1.9 |  |  |  |  |  |  |  |  |  |  |  | CN(C)C(=O)N[C@H]1CC[C@H](CCN2CCN(c3cccc(Cl)c3Cl)CC2)CC1 [cariprazine, trans-N-{4-[2-[4-(2,3-dichlorophenyl)-piperazin-1-yl]-ethyl]-cyclohexyl}-N′,N′-dimethylurea]
2 |  | ~3 | 3260 µg/mL | 8930 µg/mL | 11000 µg/mL | 3230 µg/mL | 351 µg/mL | 149 µg/mL | 18.8 µg/mL | 1 µg/mL | 3257.9 µg/mL | 1.3 µg/mL | CN(C)C(=O)N[C@H]1CC[C@H](CCN2CCN(c3cccc(Cl)c3Cl)CC2)CC1 [cariprazine hydrochloride]
